Results taken from publication PMC4884932, “Selective brain penetrable Nurr1 transactivator for treating Parkinson's disease” (Oncotarget, 2016).

Columns and labels:
[1] = test system: 6-OHDA lesioned rats; experiment: TH-immunoreactive neuron count in the SN of 6-OHDA lesioned rats; type: in vivo, rat; conditions: 10mg/kg/day gavage for three weeks, compared to the vehicle-treated group, p < 0.05
Method: (§1) All surgical procedures were performed under general anesthesia with ketamine/xylazine. 2μl 6-OHDA (20 mg/ml in 0.02% ascorbic acid) was stereotaxically injected into the right striatum of male SD rats. Lesion coordinates were set according to bregma and dura in mm: ML-3.7; AP-1.0; DV-5.5. The injection rate was 2μl/5 min and the injecting needle was left for 2 minutes after injection to avoid back flow. Apomorphine-induced rotations (see below) were assessed three days post-lesion and rats with ≥ 30 full contralateral rotation/30 minutes were included in the study.
(§2) Rats were randomly grouped into vehicle control group (n = 11) and drug treatment group (n = 10). […] The control group received DMSO/corn oil (vehicle). The treatment continued for three weeks.
The caudal portion of the brains were sectioned in the coronal plane on a cryostat at 12 μm. From a random start corresponding to SNpc position, every 12th section was selected -, fixed with 4% paraformaldehyde and processed for tyrosine hydroxylase (TH) staining using mouse monoclonal anti-TH antibody (1:2000, Chemicon) and the Vectastain Elite ABC kit (Vector Lab) according to manufacturer's instruction. TH positive neurons were counted as described.

[2] = molecular target: LXRα (Homo sapiens, UniProt Q13133); experiment: Receptor transactivation assay, LXRα (CV-1 cells); type: cell-based; conditions: at physiological concentrations
Source text: (§3) For PPARγ: CV-1 cells were transfected with 3x(rAOX/DR1)-tk-Luc reporter gene and an expression vector for PPARγ; for FXR: CV-1 cells were transfected with 3x(IBABP/IR1)-tk-Luc reporter gene and vectors for FXR and RXRα; for LXR: CV-1 cells were transfected with 3x(PLTP/LXRE)-tk-Luc reporter gene with vectors for LXRα or LXRβ. […] Luciferase data were normalized to co-transfected β-gal activity. Luciferase activity is expressed as percent of maximal activity obtained using specific agonists 9-cis-retinoic acid (RXR), retinoic acid (RAR), rosiglitazone (PPARγ), GW4064 (FXR), T0901317 (LXR).

[3] = test system: primary VMB neurons; experiment: Nurr1 downstream gene expression in VMB neurons (real time PCR); type: cell-based, mouse; conditions: 1nM, 16 hours
Method: Ventral midbrain (VMB) from E13.5-14.5 C57BL/6 mouse embryos were dissected, triturated and plated on poly-D-lysine coated 12 well plates or glass coverslips with the serum-free chemically-defined Neurobasal medium, supplemented with 2% B27, 0.5mM L-glutamine, 50I.U./ml penicillin and 50μg/ml streptomycin (Gibco-BRL). […] For each time point, cells were washed once with phosphate buffered saline and fixed with 4% paraformaldehyde for TH immunofluorescent staining. For cell counting, 10 frames were randomly captured from each well using a Leica fluorescent microscope and a minimum of four replicates for each dose and each time point were analyzed for each experiment.
Total RNA from VMB neurons or rat substantia nigra were isolated using the RNeasy Mini Kit from Qiagen (Valencia, CA) and 1μg of total RNA was reverse transcribed using SuperScript III first-strand synthesis supermix for qRT-PCR from Invitrogen (Carlsbad, CA) according to the manufacturer's instruction. Quantitative RT-PCR was performed using Maxima SYBR Green master mix (Fermentas) in ABI Prism 7900HT in four replicates with primers amplifying the target genes. Expression level of actin was used as an internal control. Data were normalized using the 2^−ΔΔCt method. Levels of target gene mRNAs were expressed relative to those in vehicle control groups and plotted in GraphPad Prism.

[4] = molecular target: LXRβ (Homo sapiens, UniProt P55055); experiment: Receptor transactivation assay, LXRβ (CV-1 cells); type: cell-based; conditions: at physiological concentrations
Source text: as §3

[5] = molecular target: T1, RXRα (Homo sapiens, UniProt P19793); experiment: Receptor transactivation assay, RXRα (CV-1 cells, rCRBPII/RXRE-tk-Luc reporter); type: cell-based; conditions: 20h
T1 sequence (P19793 1-462): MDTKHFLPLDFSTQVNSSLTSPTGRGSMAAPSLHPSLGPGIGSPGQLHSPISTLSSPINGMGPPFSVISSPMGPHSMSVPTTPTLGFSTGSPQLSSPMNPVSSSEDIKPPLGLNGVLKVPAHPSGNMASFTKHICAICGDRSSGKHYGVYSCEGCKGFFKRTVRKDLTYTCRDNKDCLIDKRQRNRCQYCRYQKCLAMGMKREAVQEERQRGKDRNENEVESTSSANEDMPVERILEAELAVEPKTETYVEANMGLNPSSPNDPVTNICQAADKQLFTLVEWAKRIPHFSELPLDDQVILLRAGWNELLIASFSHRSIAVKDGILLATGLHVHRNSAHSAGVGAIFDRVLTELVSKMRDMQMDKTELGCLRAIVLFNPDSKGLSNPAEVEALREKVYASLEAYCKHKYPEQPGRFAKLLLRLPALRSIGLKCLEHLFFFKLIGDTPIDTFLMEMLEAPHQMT
Source text: For RXR: CV-1 cells were transfected with rCRBPII/RXRE-tk-Luc reporter gene and an expression vector for RXRα, β, or γ. For RAR: CV-1 cells were transfected with ERE-tk-Luc reporter gene and an expression vector for the appropriate ER-RARα, β, or γ. ER-RARs are fusion proteins, composed of the estrogen receptor (ER) DNA binding domain fused to the ligand binding domain of RARs. This system eliminates interference by the low level of endogenous RAR activity in CV1 cells as the readout comes only from the transfected ER-RAR. For PPARγ: CV-1 cells were transfected with 3x(rAOX/DR1)-tk-Luc reporter gene and an expression vector for PPARγ; for FXR: CV-1 cells were transfected with 3x(IBABP/IR1)-tk-Luc reporter gene and vectors for FXR and RXRα; for LXR: CV-1 cells were transfected with 3x(PLTP/LXRE)-tk-Luc reporter gene with vectors for LXRα or LXRβ. For Nurr1: COS7 cells were transfected with 3xNBRE-tk-luc reporter gene and full length Nurr1 with or without full-length RXRα plasmid. […] Luciferase data were normalized to co-transfected β-gal activity. Luciferase activity is expressed as percent of maximal activity obtained using specific agonists 9-cis-retinoic acid (RXR), retinoic acid (RAR), rosiglitazone (PPARγ), GW4064 (FXR), T0901317 (LXR).

[6] = test system: 6-OHDA lesioned rats; experiment: DAT and TH content in the striatum by Western blot, 6-OHDA lesioned rats; type: in vivo, rat; conditions: 10mg/kg/day gavage for three weeks
Method: as §1, §2
Striatum samples were homogenized and boiled in SDS-PAGE sample buffer and separated onto 10% Tris-glycine gels. Western blotting was performed using anti-TH or anti-DAT (Millipore, Billerica, MA), as primary antibodies and enhanced chemiluminescence signals were quantified and normalized with β-actin.

LXRβ, sequence (P55055 whole entry, one chain of several): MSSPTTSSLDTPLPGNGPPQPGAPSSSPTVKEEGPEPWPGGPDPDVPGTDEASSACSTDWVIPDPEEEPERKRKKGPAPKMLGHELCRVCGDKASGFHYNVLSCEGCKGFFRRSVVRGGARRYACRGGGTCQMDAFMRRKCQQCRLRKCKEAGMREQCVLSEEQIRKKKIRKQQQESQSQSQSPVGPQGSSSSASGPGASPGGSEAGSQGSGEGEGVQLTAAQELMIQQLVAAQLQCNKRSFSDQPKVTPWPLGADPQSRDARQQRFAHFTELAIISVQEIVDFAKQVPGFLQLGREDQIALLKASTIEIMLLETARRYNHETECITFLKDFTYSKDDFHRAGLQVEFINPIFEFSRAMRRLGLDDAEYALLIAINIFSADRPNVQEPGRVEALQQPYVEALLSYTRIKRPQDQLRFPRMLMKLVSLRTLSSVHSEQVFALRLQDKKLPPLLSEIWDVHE
LXRα, sequence (Q13133 whole entry, one chain of several): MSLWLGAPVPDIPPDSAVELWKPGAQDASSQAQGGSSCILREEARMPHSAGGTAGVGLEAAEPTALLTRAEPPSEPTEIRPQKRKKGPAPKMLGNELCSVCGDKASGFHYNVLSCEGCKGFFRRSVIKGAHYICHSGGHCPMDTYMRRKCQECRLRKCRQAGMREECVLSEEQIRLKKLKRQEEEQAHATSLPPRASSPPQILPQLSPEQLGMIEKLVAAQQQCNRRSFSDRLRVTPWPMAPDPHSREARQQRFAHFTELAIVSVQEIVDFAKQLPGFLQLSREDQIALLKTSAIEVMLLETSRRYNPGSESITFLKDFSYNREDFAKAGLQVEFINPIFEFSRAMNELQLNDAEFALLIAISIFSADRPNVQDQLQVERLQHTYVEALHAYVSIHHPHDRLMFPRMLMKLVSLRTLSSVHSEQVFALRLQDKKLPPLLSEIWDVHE

activation of RXR heterodimer of LXRα [2]: does not activate
expression of dopa-decarboxylase (DDC) [3]: significantly increased
activation of RXR heterodimer of LXRβ [4]: does not activate
concentration that fully activates RXRα [5]: 1 nM
concentration that partially activates RXRα [5]: 0.1 nM
Compound: CC(/C=C/[C@@H]1C[C@]1(C)c1ccc2c(c1)C(C)(C)CCC2(C)C)=C\C(=O)O [IRX4204]
loss of TH-immunoreactive neurons in the SN [1]: significantly reduced the loss
expression of dopamine transporter (DAT) [3]: significantly increased
DAT content in the lesioned striatum versus non-lesioned side [6]: almost identical to those in the non-lesioned side
TH content in the lesioned striatum versus non-lesioned side [6]: almost identical to those in the non-lesioned side
